Patent publication EP0126970A2, “Anxiolytic and anti-depressant thienopyridine derivatives” (BEECHAM GROUP PLC, priority 1983, dated 1984)
Where a name gives a salt, the structure may show the parent alone.

Assays:
benzodiazepine receptors [1] = experiment: Radioligand binding, displacement of [3H]-Flunitrazepam; settings: rat whole brain membranes, 0.5nM [3H] ligand; read-out: [^3H]-Flu Ki
Description: (§1) An interaction with benzodiazepine receptors in the central nervous system may be indicative of anxiolytic activity since inhibition of benzodiazepine binding correlates with the clinical efficacy of benzodiazepines. [^3H]-Flunitrazepam and [^3H]-βCCE selectively label benzodiazepine receptors and displacement of this specific binding in vitro by novel compounds in well-washed, frozen rat whole brain membranes is measured essentially as described by Martin and Candy (1978). At the fixed concentration of 0.5nM used, specific binding of both [^3H] ligands represents 80-90% of the total radioactivity bound. Non-specific binding is defined by 10µM clonazepam for each ligand. IC50 values are calculated from log [dose] against % inhibition curves; Ki values are determined using the Cheng-Prusoff equation.

benzodiazepine receptors [2] = experiment: Radioligand binding, displacement of [3H]-βCCE; settings: rat whole brain membranes, 0.5nM [3H] ligand
Description: as §1

SMILES	Ki (benzodiazepine receptors [1])	Ki (benzodiazepine receptors [2])
O=c1c2c[nH]c3ccsc3c-2nn1-c1ccccn1 [Example E30]	0.7 nM	
CCOC(=O)c1cnc2ccsc2c1NNc1ccc(C)cc1 [Example E5, 7-(2-(4-Methylphenyl)hyarazino)-thieno[3,2-b]pyridine-6-carboxylic acid, ethyl ester, tnonohydrochloride]	6500 nM	> 100000 nM
CCOC(=O)c1c(C)nc2ccsc2c1NNc1ccc(Cl)cc1 [Example E11, 7-(2-(4-Chlorophenyl)hydrazino)-5-methyl-thieno[3,2-b] pyridine-6-carboxylic acid, ethyl estet, monohydrochloride]	200 nM	290 nM
O=c1c2c[nH]c3ccsc3c-2nn1-c1ccc(Cl)cc1 [Example E21, 2-(4-Chlorophenyl)-2,5-dihydro-3H-pyrazolo[3,4-d]thieno [3,2-b]pyridin-3-one]	0.46 nM	0.38 nM
Cc1ccc(-n2nc3c4sccc4[nH]cc-3c2=O)cc1 [Example E23, 2,5-Dihydro-2-(4-methylphenyl)-3H-pyrazolo[3,4-d]thieno [3,2-b]pyridin-3-one]	0.82 nM	0.31 nM
CCc1cc2c3nn(-c4ccc(Cl)cc4)c(=O)c-3c[nH]c2s1 [Example E28, 2-(4-Chlorophenyl)-2,5-dihydro-7-ethyl-3H-pyrazolo[3,4-d] thieno[2,3-b]pyridin-3-one]	1.8 nM	
CCOC(=O)c1c(C)nc2ccsc2c1NNc1ccccc1 [Example E10, 5-Methyl-7-(2-phenylhydrazino)-thieno[3,2-b]pyridine-6-carboxylic acid, ethyl ester, monohydrochloride]	39000 nM	23000 nM
Cc1[nH]c2ccsc2c2nn(-c3ccc(Cl)cc3)c(=O)c1-2 [Example E20, 2-(4-Chlorophenyl)-2,5-dihydro-4-methyl-3H-pyrazolo [3,4-d]thieno[3,2-b]pyridin-3-one]	1000 nM	2200 nM
O=c1c2c[nH]c3cscc3c-2nn1-c1ccc(Cl)cc1 [Example E31, 2-(4-Chlorophenyl)-2,5-dihydro-3H-pyrazolo[3,4-d]thieno [3,4-b]pyridin-3-one]	0.32 nM	
COc1ccc(-n2nc3c4sccc4[nH]cc-3c2=O)cc1 [Example E24, 2,5-Dihydro-2-(4-methoxyphenl)-3H-pyrazolo[3,4-d]thieno [3,2-b]pyridin-3-one]	0.23 nM	
CCOC(=O)c1cnc2ccsc2c1NNc1ccccc1 [Example E1, 7-(2-Phenylhydrazino)-thieno[3,2-b]pyridine-6-carboxylic acid, ethyl ester, monohydrochloride]	7000 nM	5000 nM
CCOC(=O)c1cnc2ccsc2c1NNc1ccc([N+](=O)[O-])cc1 [Example E3, 7-(2-(4-Nitrophenyl)hydrazino)-thieno[3,2-b]pyridine-6-carboxylic acid, ethyl ester, monohydrochloride]	1000 nM	1500 nM
Cc1[nH]c2ccsc2c2nn(-c3ccccc3)c(=O)c1-2 [Example E25, 2,5-Dihydro-4-methl-2-phenyl-3H-pyrazolo[3,4-d]thieno [3,2-b]pyridin-3-one]	99 nM	107 nM
CCOC(=O)c1cnc2ccsc2c1NNc1ccccn1 [Example E6, 7-(2-(2-Pyridyl)hydrazino)-thieno[3,2-b]pyridihe-6-carboxylic acid, ethyl ester, monohydrochloride]	350 nM	360 nM
CCc1cc2c3nn(-c4ccc(Cl)cc4)c(=O)c-3c(C)[nH]c2s1 [Example E29, 2-(4-Chlorophenyl)-2,5-dihydro-7-ethyl-4-methyl-3H-pyrazolo[3,4-d]thieno[2,3-b]pyridin-3-one]	568 nM	
CCOC(=O)c1cnc2ccsc2c1NNc1ccc(OC)cc1 [Example E8, 7-{2-(4-Methoxyphenyl)hydrazino)-thieno[3,2-b]pyridine-6-carboxylic acid, ethyl ester, monbhydrochloride]	2400 nM	3300 nM
O=c1c2c[nH]c3ccsc3c-2nn1-c1cc(Cl)cc(Cl)c1 [Example E22, 2-(3,5-Dichlorophenyl)-2,5-dihy dro-3H-pyrazolo[3,9-d] thieno[3,2-b]pyrirlin-3-one]	180 nM	170 nM
